Assay [1] concerns the target T1, STAT5b (Signal transducer and activator of transcription 5b) (Homo sapiens, UniProt P51692).
T1 sequence (P51692 1-787): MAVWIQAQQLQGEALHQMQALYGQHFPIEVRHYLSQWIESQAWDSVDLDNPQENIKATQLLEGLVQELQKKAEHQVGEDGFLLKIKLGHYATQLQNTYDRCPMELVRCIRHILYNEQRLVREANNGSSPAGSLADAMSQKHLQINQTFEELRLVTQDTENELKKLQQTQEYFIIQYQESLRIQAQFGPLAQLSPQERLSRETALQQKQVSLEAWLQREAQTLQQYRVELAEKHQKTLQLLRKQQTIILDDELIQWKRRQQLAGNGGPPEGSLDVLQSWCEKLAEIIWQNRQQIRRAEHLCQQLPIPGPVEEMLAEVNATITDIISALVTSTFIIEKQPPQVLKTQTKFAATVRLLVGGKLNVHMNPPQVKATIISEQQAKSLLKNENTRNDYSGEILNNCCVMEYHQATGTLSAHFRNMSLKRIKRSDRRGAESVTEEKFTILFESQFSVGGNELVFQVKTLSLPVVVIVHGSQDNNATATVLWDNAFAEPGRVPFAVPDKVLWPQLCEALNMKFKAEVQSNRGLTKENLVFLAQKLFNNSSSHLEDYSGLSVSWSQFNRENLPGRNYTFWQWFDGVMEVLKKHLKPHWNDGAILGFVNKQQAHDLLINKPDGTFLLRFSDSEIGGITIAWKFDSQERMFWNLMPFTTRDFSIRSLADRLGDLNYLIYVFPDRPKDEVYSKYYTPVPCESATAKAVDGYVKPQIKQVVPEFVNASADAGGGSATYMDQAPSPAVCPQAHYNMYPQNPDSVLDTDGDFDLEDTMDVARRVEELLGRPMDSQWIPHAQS
As to the kind of experiment: covalent photolabelling by tryptic digestion and LC-MS/MS; STAT5b inhibition assay with irradiation (no inhibition under […] without irradiation). The class given is binding.

Assay [2] has as its target acetylcholine esterase (AChE) (Electrophorus electricus, UniProt O42275). As to the kind of experiment: biochemical enzyme inhibition assay after photoactivation at […] nm (no inhibition without irradiation); covalent labelling by enzymatic digestion and MS.

Sequence of acetylcholine esterase (AChE) (O42275 24-633): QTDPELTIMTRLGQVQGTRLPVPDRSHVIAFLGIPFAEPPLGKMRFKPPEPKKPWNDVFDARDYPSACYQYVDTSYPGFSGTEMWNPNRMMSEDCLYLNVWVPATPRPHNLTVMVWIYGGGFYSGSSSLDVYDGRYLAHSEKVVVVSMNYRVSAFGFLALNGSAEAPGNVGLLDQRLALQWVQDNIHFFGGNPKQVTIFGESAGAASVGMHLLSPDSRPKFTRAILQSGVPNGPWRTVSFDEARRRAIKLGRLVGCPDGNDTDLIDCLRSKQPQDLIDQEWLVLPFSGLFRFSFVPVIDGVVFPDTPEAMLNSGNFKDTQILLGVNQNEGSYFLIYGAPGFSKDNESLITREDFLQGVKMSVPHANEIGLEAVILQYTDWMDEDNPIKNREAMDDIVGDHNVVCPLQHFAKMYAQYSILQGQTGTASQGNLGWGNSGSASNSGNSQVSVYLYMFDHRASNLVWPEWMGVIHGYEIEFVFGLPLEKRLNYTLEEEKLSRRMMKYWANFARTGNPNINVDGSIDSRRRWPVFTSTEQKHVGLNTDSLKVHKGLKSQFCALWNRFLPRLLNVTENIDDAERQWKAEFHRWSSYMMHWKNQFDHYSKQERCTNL

One may read the IC50 as the midpoint of a concentration-inhibition curve. `O=c1c(/C=N/NS(=O)(=O)c2cccnc2)coc2ccccc12` [compound 10, 10]: the IC50 in assay [1] is 24.1 µM.

As to `COc1cc2c(cc1OC)C(=NNS(=O)(=O)c1ccc(C)cc1)C(CC1CCN(Cc3ccccc3)CC1)C2` (centres unmarked) [compound 12, donepezil-tosylhydrazone], in assay [2], the IC50 was determined as 0.379 µM.
